Reference: US20160082105A1, “Antibody Buffering of a Ligand in Vivo” (ARROWSMITH TECHNOLOGIES CORPORATION, priority 2004, published 2016)
Where two headings read alike, the source gives them in different places.

Experiments:
[1] = Protocol: Samples were prepared for injection: 4.54 nmol anti-Ox antibody and 2.27 nmol Ox; 4.54 nmol D1.3 control antibody and 2.27 nmol Ox; or no antibody and 2.27 nmol Ox. Each sample was diluted to 1 ml with sterile PBS. The samples were warmed to 37° C., and then infused over 1 minute through the jugular vein cannula in Sprague-Dawley rats as described above. At various timepoints, 0.45 ml of blood was withdrawn and immediately centrifuged to separate out the plasma. 100 μl of plasma were counted directly by placing the plasma into 5 ml of Scintiverse II and counting in a Beckman LS6500 Scintillation Counter. 100 μl plasma was used in bound vs. free Ox experiments described below. For some rats, 0.1 ml of blood minus plasma was analyzed. These samples were first decolorized by incubating at 40° C. in 0.3 ml of Scintigest (Fisher Scientific):isopropanol (1:2 v/v) for one hour. Then 0.2 ml of 30% H2O2 was added dropwise, and the solution was incubated at room temperature for 15 minutes. Pipetting up and down was needed to break up some clumps. The solution was incubated at 40° C. before placing it into 5 ml of Scintiverse II. The samples were allowed to sit overnight before counting to reduce chemiluminescence. Control samples were prepared using known amounts of Ox to aid in analysis.
The rat anti-mouse kappa antibody 187.1 (see Example 1) was isolated from spent culture medium and purified by passage over a Protein A-Sepharose affinity column. Ten g of CNBr-activated Sepharose 4 Fast Flow (Amersham Biosciences) were washed and coupled with 187.1 according to manufacturer's protocol. Two mg 187.1 per 10 g of swelled resin were used.
During the antibody buffering experiments, 100 μl of plasma was loaded onto the 187.1 column immediately after centrifugation. Three ml of PBS followed by three ml of 0.2 M glycine (pH 2.5) were then applied onto the column as described in Example 1. All PBS fractions and all glycine fractions were collected separately for each timepoint and dried down in the SpeedVac. The residue was resuspended in 150 μl PBS and then transferred to a scintillation vial with 5 ml Scintiverse II for counting.
Samples of NQ11/7.12 and Ox were prepared and infused into Sprague-Dawley rats as described above. Blood samples (0.4 ml) were taken at time 1, 10, 20, 50, 90, and 120 minutes. 100 μl plasma were counted directly and 100 μl were placed on a 187.1 column to separate bound and free Ox. At 24 hours and again at 48 hours following the first administration, 2.27 nmol Ox in 0.5 ml PBS was infused over 1 minute through the jugular cannula. Timepoints were again taken and analyzed as above.
Bound and free forms of Ox in plasma fractions from the animals were separated on an affinity column. […] An immobilized rat anti-mouse kappa antibody was used to trap antibody-Ox complexes while free Ox eluted from the column with a PBS wash (free Ox fraction).

[2] = Antibody buffering in plasma: total Ox after jugular infusion; type: in vivo, rat; settings: for t1/2 of Ox (FIG. 6): 5 animals per point
From the text: Timepoints were again taken and analyzed as above.
To determine its pharmacokinetic behavior, tritiated Ox was infused into a rat through a jugular cannula, and elimination of Ox was followed through blood sampling, separation of the plasma by centrifugation, and scintillation counting of the plasma.

[3] = Ox administered alone or with D1.3
[4] = Ox alone re-administered at 24 hours and 48 hours after a single NQ11/7.12 + Ox infusion
[5] = Ox with D1.3, biphasic elimination

In the case of `O=C(O)CCCNC=C1N=C(c2ccccc2)OC1=O` [Ox, 2-phenyl-oxazol-5-one-γ-amino butyrate], the “free Ox elimination half-life in plasma” value [1, 3] is reported as 6.0 ± 1 min, the “initial free Ox concentration in plasma” value [1, 3] is reported as 6.8 nM and the “free Ox concentration in plasma after an hour” value ([1]; Ox administered with NQ11/7.12) is reported as 0.8 nM. The “free Ox elimination half-life in plasma” value ([1]; Ox administered with NQ11/7.12) was 41 ± 6 min, the “initial free Ox concentration in plasma” value ([1]; Ox administered with NQ11/7.12) was 2.2 nM and the “decline of free Ox concentration in plasma compared with NQ11/7.12” value ([1]; Ox administered with NQ16/113.8 or NQ22/16.4) was “declined much more rapidly”. The “free Ox concentration in plasma, long term buffering” value [1, 4] was “quickly normalized”, the “fraction of unbuffered Ox eliminated from plasma before the first timepoint” value ([1]; Ox without anti-Ox antibody) was “more than half” and the “increase in Ox half-life in plasma with anti-Ox antibody” value ([2]; NQ11/7.12 vs D1.3) was “seventeen-fold”. The “t1/2 of Ox (FIG. 6)” value ([2]; Ox administered with NQ11/7.12, jugular vein cannula) was 19.7 min, the “t1/2 of Ox (FIG. 6)” value ([2]; Ox administered with control antibody D1.3, jugular vein cannula) was 1.2 min and the “total Ox pharmacokinetic lifetime in plasma, long term buffering” value [2, 4] was “only small changes”. For the same molecule, the “Ox elimination half-life from plasma” value ([2]; Ox alone, jugular infusion) was 1.2 min, the “adverse effects in the animal subjects” value ([2]; Ox infused with NQ11/7.12 or D1.3, rats) was “No adverse effects were noted” and the “Ox elimination half-life from plasma, major (fast) phase” value [2, 5] was 1.2 ± 0.2 min. The “Ox elimination half-life from plasma, smaller (slow) phase” value [2, 5] was 10 ± 2 min, the “Ox elimination half-life from plasma” value ([2]; Ox with twice the molar amount of NQ11/7.12) was 20 ± 2 min and the “Ox concentration in the cellular fraction of blood, of the total Ox concentration in the plasma” value ([2]; rat, in vivo) was 1-2%.
